Values of other authors as cited in US6491952B1, “Cholesterol lowering composition” (Triple Crown AB, priority 1998, dated 2002).

Settings: daily intake; references 1-5

SMILES: CC[C@H](CC[C@@H](C)[C@H]1CC[C@H]2[C@@H]3CC[C@H]4C[C@@H](O)CC[C@]4(C)[C@H]3CC[C@]12C)C(C)C [β-sitostanol]
- cholesterol lowering effect: cholesterol lowering effect

SMILES: CC[C@H](CC[C@@H](C)[C@H]1CC[C@H]2[C@@H]3CC=C4C[C@@H](O)CC[C@]4(C)[C@H]3CC[C@]12C)C(C)C [β-sitosterol]
- cholesterol lowering effect: cholesterol lowering effect
